Among the data in patent US11186576B2, “Pyrazolo[1,5-A][1,3,5]triazine and pyrazolo[1,5-A]pyrimidine derivatives as CDK inhibitors” (Aurigene Discovery Technologies Limited, priority 2015, dated 2021) are inhibition, IC50 and EC50 values, retold here.

One experiment concerns the target CDK7/CycH/MNAT1 (Homo sapiens (Human), UniProt P50613). Briefly: Biochemical assay for CDK7 (TR-FRET kinase assay). The following applies: 60 min pre-incubation, 1 mM ATP; for inhibition at 10 µM: 10 μM compound, read-out: % inhibition @ 10 μM; for IC50: read-out: IC50. An outline of the steps: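 CDK7/CycH/MNAT1 (5 nM) was preincubated with compound for 60 min at room temperature, then reacted for 60 min with 100 nM ULight-MBP and 1 mM ATP in 1% DMSO. Irreversibility was probed with 20, 60 and 180 min preincubations.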
A general note: In TR-FRET formats the signal depends on donor and acceptor labels being close together.

Experiment [1] has as its system RNA polymerase II CTD phosphorylation (MDA-MB-231/NCI-H358 cells). The experiment can be described thus: Inhibition of RNA polymerase II CTD phosphorylation in cell western assay. It is filed as cell-based. The following applies: 4 hours incubation, phospho RNA Pol II Ser-5 or Ser-2. The procedure:
25000 cells (MDA-MB-231/NCI-H358) were seeded in 96 well black clear bottom plate incubated for overnight before addition of selected compound. 3 fold dilutions of selected compound diluted in DMSO starting from 10 μM, added to cells and incubated for 4 hours at 37° C., 5% CO2 incubator. Cells were washed once with 100 μl of phosphate buffered saline (sigma #P3813), then fixed with 100 μl/well of 4% Para formaldehyde for 60 min at room temperature, in dark. The cells were washed 3 times with 100 μl of wash buffer (PBS with 0.1% Triton-X-100), later blocked for 2 hours at room temperature in blocking buffer (5% BSA in PBST). Cells were stained overnight at 4° C. with Phospho RNA Pol II (S5) (Millipore #04-1572, Abcam #5131) or Phospho RNA Pol II (Ser-2), antibody (Bethyl labs #A300-654-A) in blocking buffer. Post incubation cells were washed with Delifia wash buffer (Perkin Elmer #4010-0010). Cells were treated with LANCE secondary antibodies (LANCE® Eu-W1024 perkin elmer #AD-0076 for phospho Ser-5 CTD RNA pol-II and Delfia Eu-N1 anti rabbit IgG Perkin elmer #AD0106 for phospho Ser-2 CTD RNA pol-II) for 2 hours in assay buffer (Perkin Elmer #1244-111), Cells were washed 3 times with Delfia wash buffer post incubation, Enhancement solution (Perkin Elmer #1244-105) added and incubated for 20 mins. Europium readings were taken in Victor-3 instrument. Cell normalization was done using Hoechst dye (0.5 μg/ml).
Selected compounds were screened in the above mentioned assay procedure. The EC50 values are summarised in the below table; wherein group “A” refers to an EC50 value of less than or equal to 1 μM, group “B” refers to EC50 value in range of 1 to 10 μM and group “C” refers to EC50 value of greater than 10 μM.

Sequence of CDK7/CycH/MNAT1 (P50613 whole entry): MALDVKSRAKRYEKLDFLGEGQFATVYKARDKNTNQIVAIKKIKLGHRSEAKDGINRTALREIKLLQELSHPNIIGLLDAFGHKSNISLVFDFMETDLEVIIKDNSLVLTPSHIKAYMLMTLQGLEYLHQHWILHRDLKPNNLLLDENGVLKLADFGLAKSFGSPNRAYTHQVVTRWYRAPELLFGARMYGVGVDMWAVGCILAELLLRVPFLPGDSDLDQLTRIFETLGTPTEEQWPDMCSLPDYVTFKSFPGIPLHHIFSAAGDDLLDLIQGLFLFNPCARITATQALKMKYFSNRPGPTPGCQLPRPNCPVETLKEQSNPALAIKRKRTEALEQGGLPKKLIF
Sequence of CDK7/CycH/MNAT1 (P51946 whole entry partner): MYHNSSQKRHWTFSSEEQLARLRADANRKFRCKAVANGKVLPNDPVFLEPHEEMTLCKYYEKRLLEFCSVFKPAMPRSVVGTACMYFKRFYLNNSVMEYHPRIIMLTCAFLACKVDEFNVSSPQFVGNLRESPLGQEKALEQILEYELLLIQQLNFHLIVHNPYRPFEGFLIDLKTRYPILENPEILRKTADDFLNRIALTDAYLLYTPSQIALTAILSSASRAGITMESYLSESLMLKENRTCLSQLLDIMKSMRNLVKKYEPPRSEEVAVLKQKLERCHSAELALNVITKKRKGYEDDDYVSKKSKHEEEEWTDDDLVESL
Sequence of CDK7/CycH/MNAT1 (P51948 whole entry partner): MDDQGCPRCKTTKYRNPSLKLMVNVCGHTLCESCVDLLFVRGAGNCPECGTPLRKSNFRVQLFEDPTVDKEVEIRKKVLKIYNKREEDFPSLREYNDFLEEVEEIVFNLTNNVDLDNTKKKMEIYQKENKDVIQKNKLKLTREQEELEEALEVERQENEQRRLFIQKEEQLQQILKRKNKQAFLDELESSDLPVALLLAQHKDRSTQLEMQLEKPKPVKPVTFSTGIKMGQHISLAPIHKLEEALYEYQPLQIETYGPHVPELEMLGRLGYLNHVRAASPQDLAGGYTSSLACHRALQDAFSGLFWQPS

For the compound `C=CC(=O)N1CCC(C(=O)Nc2cccc(CNc3nc(OC4CCN(C)CC4)nc4c(CC)cnn34)c2)CC1` [Compound 88, 1-acryloyl-N-(3-(((8-ethyl-2-((1-methylpiperidin-4-yl)oxy)pyrazolo [1,5-a][1,3,5]triazin-4-yl)amino)methyl)phenyl)piperidine-4-carboxamide], at CDK7/CycH/MNAT1, the inhibition (as a rule, the share of the control response that was lost under treatment) at 10 µM turned out to be 97% and the IC50 (commonly the concentration that gives 50% inhibition) is under 300 nM. For the same compound, the EC50 (as a rule, the concentration at which the effect is half-maximal) in experiment [1] lay in the range of 1000 to 10000 nM.
The corresponding values for `C=CC(=O)N1CCC(C(=O)Nc2cccc(CNc3nc(OC4CCN(C)CC4)nc4c(C(C)C)cnn34)c2)CC1` [Compound 111, 1-acryloyl-N-(3-(((8-isopropyl-2-((1-methylpiperidin-4-yl)oxy)pyrazolo[1,5-a][1,3,5]triazin-4-yl)amino)methyl)phenyl)piperidine-4-carboxamide] are 95%, under 300 nM and 1000 to 10000 nM.
The like results for `CC(C)c1cnn2c(Nc3cccc(C(=O)NC4CCN(C(=O)/C=C/CN(C)C)CC4)c3)nc(OC3CCN(C)CC3)nc12` [Compound 134, (E)-N-(1-(4-(dimethylamino)but-2-enoyl)piperidin-4-yl)-3-((8-isopropyl-2-((1-methylpiperidin-4-yl)oxy)pyrazolo[1,5-a][1,3,5]triazin-4-yl)amino)benzamide] were, in that order, 97%, under 300 nM and 1000 to 10000 nM.
The corresponding values for `C=CC(=O)N1CCCC(C(=O)Nc2cccc(CNc3nc(NC4CCN(C)CC4)nc4c(C(C)C)cnn34)c2)C1` (stereo not drawn) [Compound 8, 1-acryloyl-N-(3-(((8-isopropyl-2-((1-methylpiperidin-4-yl)amino)pyrazolo[1,5-a][1,3,5]triazin-4-yl)amino)methyl)phenyl)piperidine-3-carboxamide] are 96%, under 300 nM and at most 1000 nM.
As for `CC(C)c1cnn2c(Nc3cccc(NC(=O)C4CCC(NC(=O)/C=C/CN(C)C)CC4)c3)nc(OC3CCN(C)CC3)nc12` (stereo not drawn) [Compound 131, (1s,4s)-4-((E)-4-(dimethylamino)but-2-enamido)-N-(3-((8-isopropyl-2-((1-methylpiperidin-4-yl)oxy)pyrazolo[1,5-a][1,3,5]triazin-4-yl)amino)phenyl)cyclohexane-1-carboxamide], on CDK7/CycH/MNAT1, the inhibition at 10 µM is 86% and the IC50 is 300 to 1000 nM. The EC50 in experiment [1] is over 10000 nM.
The like results for `C=CC(=O)N[C@H]1CC[C@@H](C(=O)Nc2cccc(CNc3nc(OC4CCN(C)CC4)nc4c(C(C)C)cnn34)c2)CC1` [Compound 115, (1,4-cis)-4-acrylamido-N-(3-(((8-isopropyl-2-((1-methylpiperidin-4-yl)oxy)pyrazolo[1,5-a][1,3,5]triazin-4-yl)amino)methyl)phenyl)cyclohexane-1-carboxamide] were, in that order, 94%, under 300 nM and at most 1000 nM.
The corresponding values for `C=CC(=O)N[C@H]1CC[C@H](C(=O)Nc2cccc(CNc3nc(OC4CCN(C)CC4)nc4c(C(C)C)cnn34)c2)CC1` [Compound 91, (1,4-trans)-4-acrylamido-N-(3-(((8-isoproprayl-2-((1-methylpiperidin-4-yl)oxy)pyrazolo[1,5-a][1,3,5]triazin-4-yl)amino)methyl)phenyl)cyclohexane-1-carboxamide] are 94%, under 300 nM and over 10000 nM.
The like results for `C=CC(=O)N1CCC(C(=O)Nc2cccc(CNc3nc(OC4CCN(C)CC4)nc4c(C(C)C)cnn34)c2)C1` (stereo not drawn) [Compound 108, 1-acryloyl-N-(3-(((8-isopropyl-2-((1-methylpiperidin-4-yl)oxy)pyrazolo[1,5-a][1,3,5]triazin-4-yl)amino)methyl)phenyl)pyrrolidine-3-carboxamide] were, in that order, 99%, under 300 nM and 1000 to 10000 nM.
Consider `C=CC(=O)Nc1cn(C)nc1C(=O)Nc1cccc(CNc2nc(NC3CCOCC3)nc3c(C(C)C)cnn23)c1` [Compound 85, 4-acrylamido-N-(3-(((8-isopropyl-2-((tetrahydro-2H-pyran-4-yl)amino)pyrazolo[1,5-a][1,3,5]triazin-4-yl)amino)methyl)phenyl)-1-methyl-1H-pyrazole-3-carboxamide], for which, on CDK7/CycH/MNAT1, the inhibition at 10 µM stood at 99% and the IC50 is under 300 nM. The EC50 in experiment [1] was 1000 to 10000 nM.
The corresponding values for `C=CC(=O)Nc1ccc(C(=O)Nc2cccc(Nc3nc(OC4CCN(C)CC4)nc4c(C(C)C)cnn34)c2)cc1` [Compound 125, 4-acrylamido-N-(3-((8-isopropyl-2-((1-methylpiperidin-4-yl)oxy)pyrazolo[1,5-a][1,3,5]triazin-4-yl)amino)phenyl)benzamide] are 86%, under 300 nM and at most 1000 nM.
The like results for `C=CC(=O)N[C@H]1CC[C@@H](C(=O)Nc2cccc(CNc3nc(NC4CCOCC4)nc4c(C(C)C)cnn34)c2F)CC1` [Compound 38, (1,4-cis)-4-acrylamido-N-(2-fluoro-3-(((8-isopropyl-2-((tetrahydro-2H-pyran-4-yl)amino)pyrazolo[1,5-a][1,3,5]triazin-4-yl)amino)methyl)phenyl)cyclohexane-1-carboxamide] were, in that order, 95%, under 300 nM and 1000 to 10000 nM.
The like results for `C=CC(=O)NC1(C(=O)Nc2cccc(CNc3nc(NC4CCOCC4)nc4c(C(C)C)cnn34)c2)CC1` [Compound 83, 1-acrylamido-N-(3-(((8-isopropyl-2-((tetrahydro-2H-pyran-4-yl)amino)pyrazolo[1,5-a][1,3,5]triazin-4-yl)amino)methyl)phenyl)cyclopropane-1-carboxamide] were, in that order, 96%, under 300 nM and at most 1000 nM.
For the compound `C=CC(=O)N1CCC(C(=O)Nc2cccc(CNc3nc(OC4CCNCC4)nc4c(C(C)C)cnn34)c2)CC1` [Compound 106, 1-acryloyl-N-(3-(((8-isopropyl-2-(piperidin-4-yloxy)pyrazolo[1,5-a][1,3,5]triazin-4-yl)amino)methyl)phenyl)piperidine-4-carboxamide], at CDK7/CycH/MNAT1, the inhibition at 10 µM is 91% and the IC50 is over 1000 nM. In experiment [1], the EC50 is 1000 to 10000 nM.
The like results for `C=CC(=O)N1CC[C@H]1C(=O)Nc1cccc(CNc2nc(NC3CCOCC3)nc3c(C(C)C)cnn23)c1` [Compound 20, (S)-1-acryloyl-N-(3-(((8-isopropyl-2-((tetrahydro-2H-pyran-4-yl)amino)pyrazolo[1,5-a][1,3,5]triazin-4-yl)amino)methyl)phenyl)azetidine-2-carboxamide] were, in that order, 100%, under 300 nM and at most 1000 nM.
The like results for `C=CC(=O)N1CCCC(NC(=O)c2cccc(Nc3nc(OC4CCN(C)CC4)nc4c(C(C)C)cnn34)c2)C1` (stereo not drawn) [Compound 129, N-(1-acryloylpiperidin-3-yl)-3-((8-isopropyl-2-((1-methylpiperidin-4-yl)oxy)pyrazolo[1,5-a][1,3,5]triazin-4-yl)amino)benzamide] were, in that order, 94%, under 300 nM and 1000 to 10000 nM.
The like results for `C=CC(=O)N1CCCC(C(=O)Nc2cccc(CNc3nc(OC4CCOCC4)nc4c(C(C)C)cnn34)c2)C1` (stereo not drawn) [Compound 96, 1-acryloyl-N-(3-(((8-isopropyl-2-((tetrahydro-2H-pyran-4-yl)oxy)pyrazolo[1,5-a][1,3,5]triazin-4-yl)amino)methyl)phenyl)piperidine-3-carboxamide] were, in that order, 87%, 300 to 1000 nM and 1000 to 10000 nM.
